According to ChEMBL document CHEMBL1201862, “PubChem BioAssay data set” (2004):
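Where inhibition never reached the appropriate level, the endpoint shown equals the highest concentration tested. Otherwise, values were interpolated linearly from a five-concentration, 48-hour dose response in 96-well plates. GI50 is the concentration that inhibits growth by half.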 Active and inactive are the calls of the source. Cut-off read from the data, not from the text of the source: active = GI50 up to about 1.1 µM and inactive = higher.

Legend:
Assay in all cases: growth of human tumour cells (NCI), 48 h
COLO 205 = tested on: COLO 205
SK-MEL-28 = tested on: SK-MEL-28
M14 = tested on: M14
HCT-116 = tested on: HCT-116
HT-29 = tested on: HT-29
IGROV-1 = tested on: IGROV-1
SN12C = tested on: SN12C
DMS-273 = tested on: DMS-273
SNB-19 = tested on: SNB-19
UACC-62 = tested on: UACC-62
SF-539 = tested on: SF-539
ACHN = tested on: ACHN
UO-31 = tested on: UO-31
K562 = tested on: K562
EKVX = tested on: EKVX
OVCAR-4 = tested on: OVCAR-4
RXF 393 = tested on: RXF 393
SF-268 = tested on: SF-268
NCI-H226 = tested on: NCI-H226
DMS-114 = tested on: DMS-114
UACC-257 = tested on: UACC-257
XF498 = tested on: XF498
KM-20L2 = tested on: KM-20L2
LXFL 529 = tested on: LXFL 529
HCC 2998 = tested on: HCC 2998
SK-OV-3 = tested on: SK-OV-3
DLD-1 = tested on: DLD-1
TK-10 = tested on: TK-10
HOP-62 = tested on: HOP-62
HOP-92 = tested on: HOP-92
LOX IMVI = tested on: LOX IMVI
M19-MEL = tested on: M19-MEL
KM12 = tested on: KM12
OVCAR-5 = tested on: OVCAR-5
SR = tested on: SR
SNB-75 = tested on: SNB-75
NCI-H460 = tested on: NCI-H460
CCRF-CEM = tested on: CCRF-CEM
NCI-H23 = tested on: NCI-H23
SF-295 = tested on: SF-295
OVCAR-8 = tested on: OVCAR-8
MOLT-4 = tested on: MOLT-4
A549 = tested on: A549
SW-620 = tested on: SW-620
NCI-H522 = tested on: NCI-H522
U-251 = tested on: U-251
HCT-15 = tested on: HCT-15
SK-MEL-2 = tested on: SK-MEL-2
A498 = tested on: A498
CAKI-1 = tested on: CAKI-1
SK-MEL-5 = tested on: SK-MEL-5
RPMI-8226 = tested on: RPMI-8226
HL-60 = tested on: HL-60
786-0 = tested on: 786-0

`COC(=O)C(=O)C(C(C)=O)C(=O)C(=O)Nc1ccc(C)cc1C` (stereo unspecified) was tested, and the GI50 (COLO 205) was > 100 µM (inactive), the GI50 (SK-MEL-28) was > 100 µM (inactive) and the GI50 (M14) was > 100 µM (inactive). The GI50 (HCT-116) was > 100 µM (inactive), the GI50 (HT-29) was > 100 µM (inactive) and the GI50 (IGROV-1) was > 100 µM (inactive). The GI50 (SN12C) was > 100 µM (inactive), the GI50 (DMS-273) was > 100 µM (inactive) and the GI50 (SNB-19) was > 100 µM (inactive). The GI50 (UACC-62) was > 100 µM (inactive), the GI50 (SF-539) was > 100 µM (inactive) and the GI50 (ACHN) was > 100 µM (inactive). For the same molecule, the GI50 (UO-31) was > 100 µM (inactive), the GI50 (K562) was > 100 µM (inactive) and the GI50 (EKVX) was > 100 µM (inactive). The GI50 (OVCAR-4) was > 100 µM (inactive), the GI50 (RXF 393) was > 100 µM (inactive) and the GI50 (SF-268) was > 100 µM (inactive). The GI50 (NCI-H226) was > 100 µM (inactive), the GI50 (DMS-114) was > 100 µM (inactive) and the GI50 (UACC-257) was > 100 µM (inactive). For the same molecule, the GI50 (XF498) was > 100 µM (inactive), the GI50 (KM-20L2) was > 100 µM (inactive) and the GI50 (LXFL 529) was > 100 µM (inactive). For the same molecule, the GI50 (HCC 2998) was > 100 µM (inactive), the GI50 (SK-OV-3) was > 100 µM (inactive) and the GI50 (DLD-1) was > 100 µM (inactive). The GI50 (TK-10) was > 100 µM (inactive), the GI50 (HOP-62) was > 100 µM (inactive) and the GI50 (HOP-92) was > 100 µM (inactive). The GI50 (LOX IMVI) was > 100 µM (inactive), the GI50 (M19-MEL) was > 100 µM (inactive) and the GI50 (KM12) was > 100 µM (inactive). For the same molecule, the GI50 (OVCAR-5) was > 100 µM (inactive), the GI50 (SR) was > 100 µM (inactive) and the GI50 (SNB-75) was > 100 µM (inactive). For the same molecule, the GI50 (NCI-H460) was > 100 µM (inactive), the GI50 (CCRF-CEM) was > 100 µM (inactive) and the GI50 (NCI-H23) was > 100 µM (inactive). For the same molecule, the GI50 (SF-295) was > 100 µM (inactive), the GI50 (OVCAR-8) was > 100 µM (inactive) and the GI50 (MOLT-4) was > 100 µM (inactive). For the same molecule, the GI50 (A549) was > 100 µM (inactive), the GI50 (SW-620) was > 100 µM (inactive) and the GI50 (NCI-H522) was > 100 µM (inactive). For the same molecule, the GI50 (U-251) was > 100 µM (inactive), the GI50 (HCT-15) was over 100 µM and the GI50 (SK-MEL-2) was > 100 µM (inactive). The GI50 (A498) was > 100 µM (inactive), the GI50 (CAKI-1) was > 100 µM (inactive) and the GI50 (SK-MEL-5) was > 100 µM (inactive). For the same molecule, the GI50 (RPMI-8226) was > 100 µM (inactive) and the GI50 (HL-60) was > 100 µM (inactive).

`Cn1c(=O)n(C2(C)CSC2)c2ccccc21` was tested, and the GI50 (COLO 205) was > 100 µM (inactive), the GI50 (SK-MEL-28) was > 100 µM (inactive) and the GI50 (M14) was > 100 µM (inactive). The GI50 (HCT-116) was > 100 µM (inactive), the GI50 (HT-29) was > 100 µM (inactive) and the GI50 (IGROV-1) was > 100 µM (inactive). For the same molecule, the GI50 (SN12C) was > 100 µM (inactive), the GI50 (DMS-273) was > 100 µM (inactive) and the GI50 (SNB-19) was > 100 µM (inactive). For the same molecule, the GI50 (UACC-62) was > 100 µM (inactive), the GI50 (SF-539) was > 100 µM (inactive) and the GI50 (ACHN) was > 100 µM (inactive). For the same molecule, the GI50 (UO-31) was > 100 µM (inactive), the GI50 (K562) was > 100 µM (inactive) and the GI50 (EKVX) was > 100 µM (inactive). For the same molecule, the GI50 (OVCAR-4) was > 100 µM (inactive), the GI50 (RXF 393) was > 100 µM (inactive) and the GI50 (SF-268) was > 100 µM (inactive). For the same molecule, the GI50 (NCI-H226) was > 100 µM (inactive), the GI50 (DMS-114) was > 100 µM (inactive) and the GI50 (UACC-257) was > 100 µM (inactive). For the same molecule, the GI50 (XF498) was > 100 µM (inactive), the GI50 (KM-20L2) was > 100 µM (inactive) and the GI50 (LXFL 529) was > 100 µM (inactive). For the same molecule, the GI50 (HCC 2998) was > 100 µM (inactive), the GI50 (SK-OV-3) was > 100 µM (inactive) and the GI50 (DLD-1) was > 100 µM (inactive). The GI50 (TK-10) was > 100 µM (inactive), the GI50 (HOP-62) was > 100 µM (inactive) and the GI50 (HOP-92) was > 100 µM (inactive). For the same molecule, the GI50 (LOX IMVI) was > 100 µM (inactive), the GI50 (M19-MEL) was > 100 µM (inactive) and the GI50 (KM12) was > 100 µM (inactive). For the same molecule, the GI50 (OVCAR-5) was > 100 µM (inactive), the GI50 (SR) was > 100 µM (inactive) and the GI50 (SNB-75) was > 100 µM (inactive). The GI50 (NCI-H460) was > 100 µM (inactive), the GI50 (CCRF-CEM) was > 100 µM (inactive) and the GI50 (NCI-H23) was > 100 µM (inactive). For the same molecule, the GI50 (SF-295) was > 100 µM (inactive), the GI50 (OVCAR-8) was > 100 µM (inactive) and the GI50 (MOLT-4) was > 100 µM (inactive). The GI50 (A549) was > 100 µM (inactive), the GI50 (SW-620) was > 100 µM (inactive) and the GI50 (NCI-H522) was > 100 µM (inactive). The GI50 (U-251) was > 100 µM (inactive), the GI50 (HCT-15) was over 100 µM and the GI50 (786-0) was > 100 µM (inactive). The GI50 (A498) was > 100 µM (inactive), the GI50 (CAKI-1) was > 100 µM (inactive) and the GI50 (SK-MEL-5) was > 100 µM (inactive). The GI50 (RPMI-8226) was > 100 µM (inactive) and the GI50 (HL-60) was > 100 µM (inactive).
